Data taken from patent US11576912B2, “Target genes in MYC-driven neoplasia” (The Board of Trustees of the Leland Stanford Junior …, priority 2017, dated 2023).

What was measured:
[1] = tested on: EC4 cells; assay: EU labeling and imaging of total RNA distribution (RNA export); format: cell-based, mouse; conditions: EC4 cells overexpressing MYC, 150 nM KPT-330, 5 h EU labeling, compared with DMSO controls
Method: EU-Labeling and Visualization of Total RNA EC4 cells were labeled with 1 mM 5-ethynyl uridine (EU) for 5h in the presence of 150 nM KPT-330 or vehicle (DMSO control) at 37 degrees and 5% CO2. Cells were then fixed with 4% formaldehyde in PBS at room temperature for 20 minutes, washed consecutively with PBS, 50 mM NH4Cl/PBS, PBS (10 minutes each) and permeabilized with 0.2% TritonX100/PBS. After washing with PBS, EU was labeled with Alexa-647-azide using the Click-IT imaging kit (Invitrogen) following the manufacturer's instructions. Images were acquired on a DMI 6000 B (Leica) epifluorescence microscope. Mean fluorescence intensities in regions of interest in the cytoplasm and in the nucleus omitting nucleoli were determined using ImageJ.

[2] = tested on: EC4 cells; assay: Flow cytometric analysis of apoptosis (7-AAD/Annexin V); format: cell-based, mouse; conditions: versus DMSO
Method: Flow Cytometric Analysis of Apoptosis For apoptosis staining, cells were stained with 7-AAD and PE-Annexin-V (Becton Dickinson) and analyzed on a FACScan flow cytometer following manufacturer's instructions. FACS data was analyzed with FlowJo software (Tree Star). The apoptotic cell populations were defined by positive staining of both Annexin-V and 7-AAD.

[3] = IC50 determination, CellTiter-Glo cell viability, cell lines with high MYC expression; format: cell-based, human and mouse; conditions: Mus musculus; range over MYC overexpressing cancer cell lines, 72 hours
Method: (§1) IC50 Determination Cells were seeded at a density of 1000-2000 cells/well in 96-well plates. Cells were treated with different concentrations of KPT-330 (1:3 dilution from 10 micromolar to 0.33 nanomolar) for 72 hours. MYC expression was shut off by treating the cells with doxycycline (100ng/ml). All experiments were performed in quadruplicates. Cell viability was determined using the CellTiter-Glo Luminescent Cell Viability Assay (Promega). The IC50 was calculated using the Prism software (GraphPad). The log-transformed concentration values and the normalized luminance data were fitted to a four-parameter logistic equation to derive the IC50 value.

[4] = IC50 determination, CellTiter-Glo cell viability, low MYC liver cancer cell lines and normal fibroblasts; format: cell-based; conditions: Homo sapiens; range over normal fibroblast cell line and liver cancer cell lines with low MYC expression, 72 hours
Method: as §1

[5] = tested on: primary liver tumors in the LAP-tTA/tet-O-MYC mouse model
Method: KPT-330 Treatment In Vivo and Monitoring the Tumor Size
The KPT-330 (Selleckchem) was dissolved in vehicle (1% Pluronic F-68 and 1% PVP-K29/32, 25 mg/kg) was administered by oral gavage to tumor-bearing mice three times a week for 6 doses total. A 7T MRI for small animals was used to image tumor both before and after treatment. Tumor volume was calculated based on the T2 weighted image stacks using the Osirix software. For short-term treatment, the mice were treated with either vehicle or KPT-330 for three doses and sacrificed the following day after the third dose.
Western Blot and Immunohistochemical Analysis
The following antibodies were used for Western blotting and IHC: MYC (9E10 for Western blot and Epitomics 1472-1 for IHC), Tubulin (Sigma), Cleaved caspase 3 and phospho-Histone H3 (Cell Signaling). Immunofluorescence or bright field pictures were taken with 20× objectives on a Leica DMI6000 B microscope and quantified using MetaMorph image analysis software.

[6] = short-term treatment, three doses

O=C(/C=C\n1cnc(-c2cc(C(F)(F)F)cc(C(F)(F)F)c2)n1)NNc1cnccn1 [KPT-330]
RNA distribution in the cytoplasm [1]: significantly reduced RNA distribution in the cytoplasm
RNA nuclear-cytoplasmic ratio [1]: increased RNA nuclear-cytoplasmic ratio
increase in apoptosis ([2]; EC4 cells with MYC OFF (doxycycline)): modest increase in apoptosis
induction of tumor cell apoptosis ([2]; EC4 cells with MYC overexpression (MYC ON)): four-fold induction of tumor cell apoptosis
IC50 [3]: 70 to 300 nM
IC50 [4]: ≥ 300 nM
reduction in tumor volume ([5]; 25 mg/kg oral gavage three times a week, 6 doses, two weeks, MRI before and after): more than 95%
histological examination of tumor sections ([5]; H&E staining of tumor sections): only sporadic tumor cells left
proliferation or apoptosis in adjacent liver tissues (toxicity to normal hepatocytes) ([5]; mouse, in vivo): minimal toxicity to the normal hepatocytes
tumor cell apoptosis by cleaved caspase-3 staining [5, 6]: significantly induced apoptosis
tumor cell proliferation by phospho-histone H3 staining [5, 6]: completely suppressed the proliferation
tumor regression according to MRI scan ([5]; two mice with smaller tumors, 6 doses, two weeks): complete tumor regression
